Reference: patent US20170190671A1, “BIS(ARYL)CATECHOL DERIVATIVES AS HERBICIDES” (E I DU PONT DE NEMOURS AND COMPANY, priority 2014, published 2017)

Assays:
Format in all cases: in vivo
kochia (Kochia scoparia) [1] = test: Test A preemergence; conditions: Bassia scoparia, pre-emergence, 240 h
In short: (§1)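 Greenhouse pot test, loam/sand soil. Formulation: non-phytotoxic solvent mix plus surfactant. Pre: directed spray onto soil after sowing. Post: plants at 1–2 leaf, 2–10 cm. Rated visually vs untreated controls at ~10 d, 0 (no effect) to 100 (complete control).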

[2] = tested on: pigweed (Amaranthus retroflexus); test: Test A preemergence; conditions: Amaranthus retroflexus, pre-emergence, 240 h
In short: as §1

[3] = tested on: Italian ryegrass (Lolium multiflorum); test: Test A preemergence; conditions: Lolium multiflorum, pre-emergence, 240 h
In short: as §1

[4] = tested on: ragweed (common ragweed, Ambrosia elatior); test: Test A preemergence; conditions: Ambrosia artemisiifolia, pre-emergence, 240 h
In short: as §1

[5] = tested on: giant foxtail (Setaria faberii); test: Test A preemergence; conditions: Setaria faberi, pre-emergence, 240 h
In short: as §1

[6] = tested on: barnyardgrass (Echinochloa crus-galli); test: Test A preemergence; conditions: Echinochloa crus-galli, pre-emergence, 240 h
In short: as §1

[7] = tested on: galium (catchweed bedstraw, Galium aparine); test: Test C postemergence; conditions: Galium, post-emergence, 336 h, Postemergence, scale 0 to 100, read-out: Plant response rating, Galium
In short: (§2)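 Greenhouse test; preemergence to seeds in loam/sand soil, or postemergence spray to 2-18 cm, 1- to 4-leaf plants in peat/vermiculite medium; compound in non-phytotoxic solvent plus surfactant. Visual rating vs controls at 13-15 d, 0 = no effect, 100 = complete control.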

[8] = tested on: giant foxtail (Setaria faberii); test: Test C postemergence; conditions: Setaria faberi, post-emergence, 336 h, Postemergence, scale 0 to 100, read-out: Plant response rating, Foxtail, Giant
In short: as §2

[9] = tested on: morningglory (Ipomoea coccinea); test: Test C postemergence; conditions: Ipomoea, post-emergence, 336 h, Postemergence, scale 0 to 100, read-out: Plant response rating, Morningglory
In short: as §2

[10] = tested on: sedge, umbrella (small-flower umbrella sedge, Cyperus difformis); test: Test B flooded paddy; conditions: Cyperus difformis, 336 h; 250 g ai/ha, Flood, 13 to 15 days, scale 0 (no effect) to 100 (complete control); read-out: Plant response rating, Sedge, Umbrella
In short: (§3)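 Pots were flooded to 3 cm above the soil surface at treatment, compound applied directly to the paddy water, and that depth held throughout. Plants were kept in a greenhouse for 13 to 15 days, then visually rated against untreated controls.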

[11] = tested on: ducksalad (Heteranthera limosa); test: Test B flooded paddy; conditions: Heteranthera limosa, 336 h; 250 g ai/ha, Flood, 13 to 15 days, scale 0 (no effect) to 100 (complete control); read-out: Plant response rating, Ducksalad
In short: as §3

[12] = tested on: barnyardgrass (Echinochloa crus-galli); test: Test B flooded paddy; conditions: Echinochloa crus-galli, 336 h; 250 g ai/ha, Flood, 13 to 15 days, scale 0 (no effect) to 100 (complete control); read-out: Plant response rating, Barnyardgrass
In short: as §3

rice (Oryza sativa) = test: Test B flooded paddy; conditions: Oryza sativa, 336 h; 250 g ai/ha, Flood, 13 to 15 days, scale 0 (no effect) to 100 (complete control); read-out: Plant response rating, Rice
In short: as §3

kochia (Kochia scoparia) [13] = test: Test A postemergence; conditions: Bassia scoparia, post-emergence, 240 h, 0 to 100 scale, read-out: Plant response rating, Kochia
In short: as §1

[14] = tested on: pigweed (Amaranthus retroflexus); test: Test A postemergence; conditions: Amaranthus retroflexus, post-emergence, 240 h, 0 to 100 scale, read-out: Plant response rating, Pigweed
In short: as §1

[15] = tested on: Italian ryegrass (Lolium multiflorum); test: Test A postemergence; conditions: Lolium multiflorum, post-emergence, 240 h, 0 to 100 scale, read-out: Plant response rating, Ryegrass, Italian
In short: as §1

[16] = tested on: galium (catchweed bedstraw, Galium aparine); test: Test A postemergence; conditions: Galium, post-emergence, 240 h, 0 to 100 scale, read-out: Plant response rating, Galium
In short: as §1

[17] = tested on: ragweed (common ragweed, Ambrosia elatior); test: Test A postemergence; conditions: Ambrosia artemisiifolia, post-emergence, 240 h, 0 to 100 scale, read-out: Plant response rating, Ragweed
In short: as §1

[18] = tested on: blackgrass (Alopecurus myosuroides); test: Test A postemergence; conditions: Alopecurus myosuroides, post-emergence, 240 h, 0 to 100 scale, read-out: Plant response rating, Blackgrass
In short: as §1

[19] = tested on: giant foxtail (Setaria faberii); test: Test A postemergence; conditions: Setaria faberi, post-emergence, 240 h, 0 to 100 scale, read-out: Plant response rating, Foxtail, Giant
In short: as §1

[20] = tested on: wheat (Triticum aestivum); test: Test A postemergence; conditions: Triticum aestivum, post-emergence, 240 h, 0 to 100 scale, read-out: Plant response rating, Wheat
In short: as §1

corn (Zea mays) = test: Test A postemergence; conditions: Zea mays, post-emergence, 240 h, 0 to 100 scale
In short: as §1

[21] = tested on: barnyardgrass (Echinochloa crus-galli); test: Test A postemergence; conditions: Echinochloa crus-galli, post-emergence, 240 h, 0 to 100 scale, read-out: Plant response rating, Barnyardgrass
In short: as §1

Q: With `FC(F)c1cccc(Oc2ncc(Cl)cn2)c1Oc1ncc(Cl)cn1` [Compound 46, 2,2′-[[3-(difluoromethyl)-1,2-phenylene]bis(oxy)]bis[5-chloropyrimidine]] as the compound, how does the pest or weed control at 125 g/ha (kochia (Kochia scoparia) [1]; 125 g ai/ha, 0 to 100 scale (0 no effect, 100 complete control), read-out: Kochia plant response rating) read?
A: 100%

Q: What about the pest or weed control at 500 g/ha (kochia (Kochia scoparia) [1]; 500 g ai/ha, 0 to 100 scale, read-out: Plant response rating, Kochia) of the same compound?
A: 100%

Q: And the pest or weed control at 125 g/ha ([2]; 125 g ai/ha, 0 to 100 scale (0 no effect, 100 complete control), read-out: Pigweed plant response rating)?
A: 100%

Q: What about the pest or weed control at 500 g/ha ([2]; 500 g ai/ha, 0 to 100 scale, read-out: Plant response rating, Pigweed) of the same compound?
A: 100%

Q: What about the pest or weed control at 125 g/ha ([3]; 125 g ai/ha, 0 to 100 scale (0 no effect, 100 complete control), read-out: Ryegrass, Italian plant response rating) of the same compound?
A: 30%

Q: What about the pest or weed control at 500 g/ha ([3]; 500 g ai/ha, 0 to 100 scale, read-out: Plant response rating, Ryegrass, Italian) of the same compound?
A: 80%

Q: What about the pest or weed control at 125 g/ha ([4]; 125 g ai/ha, 0 to 100 scale (0 no effect, 100 complete control), read-out: Ragweed plant response rating) of the same compound?
A: 90%

Q: What about the pest or weed control at 500 g/ha ([4]; 500 g ai/ha, 0 to 100 scale, read-out: Plant response rating, Ragweed) of the same compound?
A: 100%

Q: And the pest or weed control at 125 g/ha ([5]; 125 g ai/ha, 0 to 100 scale (0 no effect, 100 complete control), read-out: Foxtail, Giant plant response rating)?
A: 100%

Q: What about the pest or weed control at 500 g/ha ([5]; 500 g ai/ha, 0 to 100 scale, read-out: Plant response rating, Foxtail, Giant) of the same compound?
A: 100%

Q: What about the pest or weed control at 125 g/ha ([6]; 125 g ai/ha, 0 to 100 scale (0 no effect, 100 complete control), read-out: Barnyardgrass plant response rating) of the same compound?
A: 90%

Q: What about the pest or weed control at 500 g/ha ([6]; 500 g ai/ha, 0 to 100 scale, read-out: Plant response rating, Barnyardgrass) of the same compound?
A: 100%

Q: And the pest or weed control at 16 g/ha ([7]; 16 g ai/ha)?
A: 60%

Q: What about the pest or weed control at 31 g/ha ([7]; 31 g ai/ha) of the same compound?
A: 60%

Q: And the pest or weed control at 62 g/ha ([7]; 62 g ai/ha)?
A: 60%

Q: And the pest or weed control at 125 g/ha ([7]; 125 g ai/ha)?
A: 65%

Q: What about the pest or weed control at 16 g/ha ([8]; 16 g ai/ha) of the same compound?
A: 35%

Q: What about the pest or weed control at 31 g/ha ([8]; 31 g ai/ha) of the same compound?
A: 20%

Q: What about the pest or weed control at 62 g/ha ([8]; 62 g ai/ha) of the same compound?
A: 50%

Q: What about the pest or weed control at 125 g/ha ([8]; 125 g ai/ha) of the same compound?
A: 25%

Q: What about the pest or weed control at 31 g/ha ([9]; 31 g ai/ha) of the same compound?
A: 80%

Q: And the pest or weed control at 62 g/ha ([9]; 62 g ai/ha)?
A: 85%

Q: And the pest or weed control at 125 g/ha ([9]; 125 g ai/ha)?
A: 90%

Q: And the pest or weed control at 250 g/ha [10]?
A: 65%

Q: What about the pest or weed control at 250 g/ha [11] of the same compound?
A: 80%

Q: And the pest or weed control at 250 g/ha [12]?
A: 0%

Q: What about the plant injury at 250 g/ha (rice (Oryza sativa)) of the same compound?
A: 10%

Q: And the pest or weed control at 125 g/ha (kochia (Kochia scoparia) [13]; 125 g ai/ha)?
A: 100%

Q: What about the pest or weed control at 500 g/ha (kochia (Kochia scoparia) [13]; 500 g ai/ha) of the same compound?
A: 60%

Q: And the pest or weed control at 125 g/ha ([14]; 125 g ai/ha)?
A: 100%

Q: What about the pest or weed control at 500 g/ha ([14]; 500 g ai/ha) of the same compound?
A: 100%

Q: And the pest or weed control at 125 g/ha ([15]; 125 g ai/ha)?
A: 90%

Q: What about the pest or weed control at 500 g/ha ([15]; 500 g ai/ha) of the same compound?
A: 100%

Q: What about the pest or weed control at 125 g/ha ([16]; 125 g ai/ha) of the same compound?
A: 100%

Q: And the pest or weed control at 500 g/ha ([16]; 500 g ai/ha)?
A: 100%

Q: And the pest or weed control at 125 g/ha ([17]; 125 g ai/ha)?
A: 100%

Q: What about the pest or weed control at 500 g/ha ([17]; 500 g ai/ha) of the same compound?
A: 100%

Q: And the pest or weed control at 125 g/ha ([18]; 125 g ai/ha)?
A: 90%

Q: And the pest or weed control at 500 g/ha ([18]; 500 g ai/ha)?
A: 100%

Q: What about the pest or weed control at 125 g/ha ([19]; 125 g ai/ha) of the same compound?
A: 90%

Q: What about the pest or weed control at 500 g/ha ([19]; 500 g ai/ha) of the same compound?
A: 100%

Q: What about the plant injury at 125 g/ha ([20]; 125 g ai/ha) of the same compound?
A: 50%

Q: And the plant injury at 500 g/ha ([20]; 500 g ai/ha)?
A: 100%

Q: And the Corn plant response rating (crop injury, 0 = no effect, 100 = complete kill) at 125 g/ha (corn (Zea mays); 125 g ai/ha)?
A: 90%

Q: And the Corn plant response rating (crop injury, 0 = no effect, 100 = complete kill) at 500 g/ha (corn (Zea mays); 500 g ai/ha)?
A: 100%

Q: And the pest or weed control at 125 g/ha ([21]; 125 g ai/ha)?
A: 90%

Q: What about the pest or weed control at 500 g/ha ([21]; 500 g ai/ha) of the same compound?
A: 100%
